Assay results from patent US20210171503A1, “GLYCOLATE OXIDASE INHIBITORS AND USE THEREOF” (ORFAN BIOTECH INC., priority 2017, published 2021).
Structures can show the parent of a compound that is named as a salt.

Target: T1, mouse glycolate oxidase (mGO) (Mus musculus, UniProt Q9WU19)
T1 construct: His6 (N); made in house; host or cells: E. coli BL21 (DE3)
T1 sequence (Q9WU19 1-370): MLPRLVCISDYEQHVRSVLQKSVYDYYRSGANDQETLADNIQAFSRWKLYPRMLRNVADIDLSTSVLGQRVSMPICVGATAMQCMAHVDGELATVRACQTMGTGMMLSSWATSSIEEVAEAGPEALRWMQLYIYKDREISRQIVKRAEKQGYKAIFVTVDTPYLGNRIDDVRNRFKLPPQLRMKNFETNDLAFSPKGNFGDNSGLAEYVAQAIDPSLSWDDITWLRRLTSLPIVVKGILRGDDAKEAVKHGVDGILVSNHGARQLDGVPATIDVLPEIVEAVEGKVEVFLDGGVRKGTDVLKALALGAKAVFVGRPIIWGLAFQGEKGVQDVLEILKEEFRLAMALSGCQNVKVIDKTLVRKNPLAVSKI
Assay: In vitro inhibition of mouse glycolate oxidase (mGO), HRP-coupled Trinder reaction
Type: biochemical
Details: compound tested at 100 μM; 40 mM glycolic acid as substrate; activity calculated at 1 minute
Protocol: Protein expression. BL21 (DE3) E. coli transformed with recombinant pET-15b expression vector containing mouse Hao1 cDNA with an N-terminal His6 tag was grown in LB medium in the presence of 0.1 mg/mL ampicillin. For purification of recombinant mGO expressed in BL21 E. coli, bacteria pellets were thawed and re-suspended in 2 mL lysis buffer (50 mM NaH2PO4, 300 mM NaCl, 10 mM imidazole, 50 μM flavin mononucleotide (FMN), pH 7.5), and then treated for 30 minutes with 1 mM phenylmethylsulfonyl fluoride (PMSF) for protease inhibition, 0.1% Triton X-100 and 0.2 mg/mL lysozyme to break cellular membranes. After sonication, cells were centrifuged and the supernatant containing the total cellular extract (pre-column fraction) was loaded into a Ni-NTA agarose column, and incubated for 30 minutes at 4° C. to allow binding. The column was washed with two bed volumes of lysis buffer with 20 mM imidazole to eliminate unbound proteins (wash fraction). mGO was eluted using the same buffer containing 300 mM imidazole. Fractions containing purified GO were dialyzed against 300 mL of dialysis buffer (50 mM NaH2PO4, 300 mM NaCl, pH 7.5) at 4° C. with agitation overnight, and then kept at 4° C. in darkness. Protein was quantified by the bicinchoninic acid (BCA) assay.
Inhibition assays. Enzymatic activity of mGO was determined in the presence of glycolate as substrate (40 mM glycolic acid) and phosphate buffer (50 mM KPO4, 0.1 mM EDTA, pH 7). The production of glyoxylate was indirectly measured by the quantification of hydrogen peroxide formed during the first oxidation reaction. This hydrogen peroxide reacted with 4.9 mM 4-aminoantipyrine and 0.1 mM sulphonated […] in a coupled horseradish peroxidase (HRP) reaction that yields a quinoneimine dye (FIG. 1) measured at 515 nm (Trinder reaction). Enzymatic activity was calculated at 1 minute after initiation of the Trinder reaction.

SMILES	inhibition at 100 µM
N#Cc1ccc(-c2ccc(Cc3snnc3C(=O)O)cc2)cc1 [Compound 14, 5-((4′-Cyano-[1,1′-biphenyl]-4-yl)methyl)-1,2,3-thiadiazole-4-carboxylic Acid]	30 to 60%
Cc1[nH]nc(C(=O)O)c1Nc1ccc(Cc2ccc(OCCOC3CN(C(=O)OC(C)(C)C)C3)cc2)cc1 [Compound 59, 4-((4-(4-(2-((1-(tert-butoxycarbonyl)azetidin-3-yl)oxy)ethoxy)benzyl)phenyl)amino)-5-methyl-1H-pyrazole-3-carboxylic Acid]	< 30%
O=C(O)c1nnsc1Cc1ccc(Oc2ccccc2)cc1 [Compound 18, 5-(4-Phenoxybenzyl)-1,2,3-thiadiazole-4-carboxylic Acid]	30 to 60%
CC(C)(C)OC(=O)N1CCN(CCOc2ccc(Cc3ccc(Nc4ccnnc4C(=O)O)cc3)cc2)CC1 [Compound 72 Na salt, 4-((4-(4-(2-(4-(tert-Butoxycarbonyl)piperazin-1-yl)ethoxy)-benzyl)phenyl)amino)pyridazine-3-carboxylic Acid Sodium Salt]	> 60%
Cc1snc(C(=O)O)c1Nc1ccc(-c2ccc(C#N)cc2)cc1 [Compound 33, 4-((4′-Cyano-[1,1′-biphenyl]-4-yl)amino)-5-methylisothiazole-3-carboxylic Acid]	> 60%
CC(C)(C)OC(=O)N1CC(OCCOc2ccc(Cc3ccc(Nc4ccnnc4C(=O)O)cc3)cc2)C1 [Compound 68 Na salt, 4-((4-(4-(2-((1-(tert-butoxycarbonyl)azetidin-3-yl)oxy)ethoxy)benzyl)phenyl)amino)pyridazine-3-carboxylic Acid sodium Salt]	> 60%
Cc1[nH]nc(C(=O)O)c1Nc1ccc(Cc2ccc(OCCN3CCNCC3)cc2)cc1 [Compound 64, 5-methyl-4-((4-(4-(2-(piperazin-1-yl)ethoxy)benzyl)phenyl)amino)-1H-pyrazole-3-carboxylic Acid hydrochloride]	< 30%
COc1ccc(CNc2ccnnc2C(=O)O)c(OC)c1 [Compound 49, 4-((2,4-Dimethoxybenzyl)amino)pyridazine-3-carboxylic Acid Na Salt]	30 to 60%
Cc1n[nH]c(C(=O)O)c1NCc1ccc(F)cc1 [Compound 43, 4-((4-Fluorobenzyl)amino)-3-methyl-1H-pyrazole-5-carboxylic Acid]	30 to 60%
Cc1[nH]nc(C(=O)O)c1Nc1ccc(Cc2ccc(OCCN3CCN(C(=O)OC(C)(C)C)CC3)cc2)cc1 [Compound 63, 4-((4-(4-(2-(4-(tert-butoxycarbonyl)piperazin-1-yl)ethoxy)benzyl)phenyl)amino)-5-methyl-1H-pyrazole-3-carboxylic Acid]	< 30%
Cc1snc(C(=O)O)c1Nc1cccc(-c2ccc(C#N)cc2)c1 [Compound 36, 4-((4′-Cyano-[1,1′-biphenyl]-3-yl)amino)-5-methylisothiazole-3-carboxylic Acid]	30 to 60%
Cc1[nH]nc(C(=O)O)c1Cc1ccc(Br)cc1 [Compound 8, 4-(4-Bromobenzyl)-5-methyl-1H-pyrazole-3-carboxylic Acid]	< 30%
N#Cc1ccc(-c2cccc(Nc3ccnnc3C(=O)O)c2)cc1 [Compound 48, sodium salt, 4-((4′-Cyano-[1,1′-biphenyl]-3-yl)amino)pyridazine-3-carboxylic Acid]	30 to 60%
Cc1[nH]nc(C(=O)O)c1Nc1ccc(Cc2ccc(OCCCCN3CCOCC3)cc2)cc1 [Compound 65, 5-methyl-4-((4-(4-(4-morpholinobutoxy)benzyl)phenyl)amino)-1H-pyrazole-3-carboxylic Acid]	< 0%
Cc1[nH]nc(C(=O)O)c1Nc1ccc(Cc2ccc(OCCC3CCNCC3)cc2)cc1 [Compound 62, 5-methyl-4-((4-(4-(2-(piperidin-4-yl)ethoxy)benzyl)phenyl)amino)-1H-pyrazole-3-carboxylic Acid hydrochloride]	< 30%
Cc1snc(C(=O)O)c1Nc1cccc(Br)c1 [Compound 35, 4-((3-Bromophenyl)amino)-5-methylisothiazole-3-carboxylic Acid]	30 to 60%
Cc1[nH]nc(C(=O)O)c1Nc1cccc(-c2ccc(C#N)cc2)c1 [Compound 42, 4-((4′-Cyano-[1,1′-biphenyl]-3-yl)amino)-5-methyl-1H-pyrazole-3-carboxylic Acid]	30 to 60%
Cc1onc(C(=O)O)c1Nc1ccc(Cc2ccc(F)cc2)cc1 [Compound 54, 4-((4-(4-fluorobenzyl)phenyl)amino)-5-methylisoxazole-3-carboxylic Acid]	< 30%
O=C(O)c1nnccc1SCc1ccccc1 [Compound 76, 4-(Benzylthio)pyridazine-3-carboxylic Acid]	< 30%
O=C(O)c1nnsc1Cc1ccc(Br)cc1 [Compound 15, 5-(4-Bromobenzyl)-1,2,3-thiadiazole-4-carboxylic Acid]	> 60%
Cc1[nH]nc(C(=O)O)c1Nc1cccc(Br)c1 [Compound 41, 4-((3-Bromophenyl)amino)-5-methyl-1H-pyrazole-3-carboxylic Acid]	30 to 60%
Cc1[nH]nc(C(=O)O)c1Nc1ccc(Cc2ccc(OCCC3CCN(C(=O)OC(C)(C)C)CC3)cc2)cc1 [Compound 61, 4-((4-(4-(2-(1-(tert-butoxycarbonyl)piperidin-4-yl)ethoxy)benzyl)phenyl)amino)-5-methyl-1H-pyrazole-3-carboxylic Acid]	> 60%
O=C(O)c1nnsc1Nc1ccc(Br)cc1 [Compound 24, 5-((4-Bromophenyl)amino)-1,2,3-thiadiazole-4-carboxylic Acid]	> 60%

Other lines, results leading:

inhibition at 100 µM	SMILES
30 to 60%	Cc1[nH]nc(C(=O)O)c1Cc1ccc(-c2ccc(C#N)cc2)cc1 [Compound 7, 4-((4′-Cyano-[1,1′-biphenyl]-4-yl)methyl)-5-methyl-H-pyrazole-3-carboxylic Acid]
< 30%	Cc1[nH]nc(C(=O)O)c1Nc1ccc(Cc2ccc(OCCOC3CNC3)cc2)cc1 [Compound 60, 4-((4-(4-(2-(azetidin-3-yloxy)ethoxy)benzyl)phenyl)amino)-5-methyl-1H-pyrazole-3-carboxylic Acid hydrochloride]
> 60%	Cc1onc(C(=O)O)c1N(Cc1ccc(Oc2ccc(C#N)cc2)cc1)Cc1ccc(Oc2ccc(C#N)cc2)cc1 [Compound 32, 4-(bis(4-(4-Cyanophenoxy)benzyl)amino)-5-methylisoxazole-3-carboxylic Acid]
30 to 60%	Cc1[nH]nc(C(=O)O)c1Nc1ccc(C#N)cc1 [Compound 45, 4-((4-Cyanophenyl)amino)-5-methyl-1H-pyrazole-3-carboxylic Acid]
30 to 60%	CCCCCC(Sc1ccnnc1C(=O)O)c1ccc(F)cc1 (stereo not shown) [Compound 77, 4-((1-(4-Fluorophenyl)hexyl)thio)pyridazine-3-carboxylic Acid]
< 30%	Cc1[nH]nc(C(=O)O)c1Nc1ccc(Br)cc1 [Compound 40, 4-((4-Bromophenyl)amino)-5-methyl-1H-pyrazole-3-carboxylic Acid]
30 to 60%	O=C(O)c1nnccc1Nc1ccc(Cc2ccc(OCCC3CCNCC3)cc2)cc1 [Compound 71, 4-((4-(4-(2-(Piperidin-4-yl)ethoxy)benzyl)phenyl)amino)-pyridazine-3-carboxylic Acid hydrochloride]
30 to 60%	Cc1[nH]nc(C(=O)O)c1Nc1ccc(-c2ccc(C#N)cc2)cc1 [Compound 39, 4-((4′-Cyano-[1,1′-biphenyl]-4-yl)amino)-5-methyl-H-pyrazole-3-carboxylic Acid]
> 60%	CCCCCC(Sc1c(C(=O)O)n[nH]c1C)c1ccc(F)cc1 (stereo not shown) [Compound 79, 4-((1-(4-Fluorophenyl)hexyl)thio)-5-methyl-1H-pyrazole-3-carboxylic Acid]
30 to 60%	Cc1[nH]nc(C(=O)O)c1Cc1ccc(Oc2ccccc2)cc1 [Compound 10, 5-Methyl-4-(4-phenoxybenzyl)-1H-pyrazole-3-carboxylic Acid]
30 to 60%	COc1ccc(CN(c2ccc(-c3ccc(C#N)cc3)cc2)c2c(C(=O)O)n[nH]c2C)cc1 [Compound 57, 4-((4′-cyano-[1,1′-biphenyl]-4-yl)(4-methoxybenzyl)amino)-5-methyl-1H-pyrazole-3-carboxylic Acid]
